Test results: patent publication US10023570B2 (Array BioPharma, Inc., priority 2015, dated 2018)

Target: human KDR protein in HEK-293 cells (Homo sapiens (Human), UniProt P35968)
Assay: KDR Cell Assay (phospho-KDR in HEK-293 cells expressing inducible KDR)
Assay type: cell-based
Settings: pKDR Cell HEK 10% FBS IC50, HEK-293 cells expressing inducible KDR, VEGF stimulated
How it was run: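 HEK-293 cells with inducible human KDR were treated with compound for 1 h in DMEM (0.25% DMSO final), then lysed. Phospho-KDR was quantified by Meso Scale immunoassay, expressed as percent of control, and IC50 taken where a 4-parameter logistic fit crossed 50 POC.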

human KDR protein in HEK-293 cells, sequence (P35968 20-1356): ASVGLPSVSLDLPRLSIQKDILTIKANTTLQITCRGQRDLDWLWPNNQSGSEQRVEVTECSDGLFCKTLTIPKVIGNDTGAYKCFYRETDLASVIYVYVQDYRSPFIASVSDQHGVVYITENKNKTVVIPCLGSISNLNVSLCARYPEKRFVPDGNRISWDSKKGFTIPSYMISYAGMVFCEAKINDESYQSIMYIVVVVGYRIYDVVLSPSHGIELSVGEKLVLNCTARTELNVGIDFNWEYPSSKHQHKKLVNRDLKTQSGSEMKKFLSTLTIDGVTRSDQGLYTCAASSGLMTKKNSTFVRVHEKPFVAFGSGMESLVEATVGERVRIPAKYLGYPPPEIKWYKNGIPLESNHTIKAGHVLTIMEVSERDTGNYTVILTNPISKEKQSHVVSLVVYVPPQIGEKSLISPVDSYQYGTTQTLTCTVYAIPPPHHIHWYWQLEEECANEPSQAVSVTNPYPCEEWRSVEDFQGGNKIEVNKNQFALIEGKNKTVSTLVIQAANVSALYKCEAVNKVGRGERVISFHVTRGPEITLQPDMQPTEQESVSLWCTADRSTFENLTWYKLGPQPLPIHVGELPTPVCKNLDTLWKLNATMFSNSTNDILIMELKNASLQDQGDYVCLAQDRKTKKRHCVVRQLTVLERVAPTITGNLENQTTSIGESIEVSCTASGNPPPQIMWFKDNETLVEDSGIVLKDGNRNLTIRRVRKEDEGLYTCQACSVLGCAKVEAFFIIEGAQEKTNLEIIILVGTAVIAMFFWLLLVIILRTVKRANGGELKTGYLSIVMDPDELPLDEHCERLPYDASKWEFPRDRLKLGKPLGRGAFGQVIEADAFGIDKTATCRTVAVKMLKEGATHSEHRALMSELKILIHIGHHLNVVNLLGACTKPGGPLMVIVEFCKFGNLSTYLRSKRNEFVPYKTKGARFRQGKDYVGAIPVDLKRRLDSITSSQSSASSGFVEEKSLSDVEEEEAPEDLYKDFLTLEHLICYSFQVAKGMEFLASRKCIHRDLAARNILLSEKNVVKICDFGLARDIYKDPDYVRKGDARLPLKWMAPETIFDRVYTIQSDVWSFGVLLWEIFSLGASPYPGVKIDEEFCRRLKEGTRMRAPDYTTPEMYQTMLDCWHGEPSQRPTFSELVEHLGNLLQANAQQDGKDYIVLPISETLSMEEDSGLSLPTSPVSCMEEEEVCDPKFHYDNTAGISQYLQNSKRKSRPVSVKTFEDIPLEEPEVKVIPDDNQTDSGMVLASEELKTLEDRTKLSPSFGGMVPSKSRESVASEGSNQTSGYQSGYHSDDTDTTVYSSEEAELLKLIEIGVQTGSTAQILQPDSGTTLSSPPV

| IC50 (10% FBS) [nM] | IC50 [nM] | SMILES |
| --- | --- | --- |
| 869 |  | Cn1cc(-c2cc(-c3ccc(N4CCN(C(=O)N5CCC[C@H]5C#N)CC4)nc3)c3c(C#N)cnn3c2)cn1 [Example 112, (S)-4-(6-(4-(2-cyanopyrrolidine-1-carbonyl)piperazin-1-yl)pyridin-3-yl)-6-(1-methyl-1H-pyrazol-4-yl)pyrazolo[1,5-a]pyridine-3-carbonitrile] |
| 2100 |  | Cn1cc(-c2cc(-c3ccc(N4CCN(C(=O)CC(C)(C)C)CC4)cc3)c3c(C#N)cnn3c2)cn1 [Example 294, 4-(4-(4-(3,3-dimethylbutanoyl)piperazin-1-yl)phenyl)-6-(1-methyl-1H-pyrazol-4-yl)pyrazolo[1,5-a]pyridine-3-carbonitrile] |
|  | 653 | Cc1ccnc(CN2CCN(c3ccc(-c4cc(-c5cnn(C)c5)cn5ncc(C#N)c45)cn3)CC2)c1 [Example 443, 6-(1-methyl-1H-pyrazol-4-yl)-4-(6-(4-((4-methylpyridin-2-yl)methyl)piperazin-1-yl)pyridine-3-yl)pyrazolo[1,5-a]pyridine-3-carbonitrile] |
|  | 1990 | Cc1cccnc1CN1CCN(c2ccc(-c3cc(-c4cnn(C)c4)cn4ncc(C#N)c34)cn2)CC1 [Example 438, 6-(1-methyl-1H-pyrazol-4-yl)-4-(6-(4-((3-methylpyridin-2-yl)methyl)piperazin-1-yl)pyridine-3-yl)pyrazolo[1,5-a]pyridine-3-carbonitrile] |
|  | 1040 | Cn1cc(-c2cc(-c3ccc(N4CCN(C(=O)N5CC6C(C5)C6(C)C)CC4)nc3)c3c(C#N)cnn3c2)cn1 (centres unmarked) [Example 384, 4-(6-(4-(6,6-dimethyl-3-azabicyclo[3.1.0]hexane-3-carbonyl)piperazin-1-yl)pyridin-3-yl)-6-(1-methyl-1H-pyrazol-4-yl)pyrazolo[1,5-a]pyridine-3-carbonitrile] |
| 305 |  | Cn1cc(-c2cc(-c3ccc(N4CCN(C(=O)C5(c6ccc(F)cc6)CC5)CC4)nc3)c3c(C#N)cnn3c2)cn1 [Example 345, 4-(6-(4-(1-(4-fluorophenyl)cyclopropanecarbonyl)piperazin-1-yl)pyridin-3-yl)-6-(1-methyl-1H-pyrazol-4-yl)pyrazolo[1,5-a]pyridine-3-carbonitrile] |
|  | 576 | Cn1cc(-c2cc(-c3ccc(N4CCN(Cc5c(F)cccc5F)CC4)nc3)c3c(C#N)cnn3c2)cn1 [Example 441, 4-(6-(4-(2,6-difluorobenzyl)piperazin-1-yl)pyridine-3-yl)-6-(1-methyl-1H-pyrazol-4-yl)pyrazolo[1,5-a]pyridine-3-carbonitrile] |
| 848 |  | Cn1cc(-c2cc(-c3ccc(N4CCN(C(=O)N5CC[C@@H](F)C5)CC4)nc3)c3c(C#N)cnn3c2)cn1 [Example 103, (R)-4-(6-(4-(3-fluoropyrrolidine-1-carbonyl)piperazin-1-yl)pyridin-3-yl)-6-(1-methyl-1H-pyrazol-4-yl)pyrazolo[1,5-a]pyridine-3-carbonitrile] |
|  | 1790 | Cn1cc(-c2cc(-c3ccc(N4CCC5(CCN(C(=O)OC(C)(C)C)CC5)C4)nc3)c3c(C#N)cnn3c2)cn1 [Example 517, tert-butyl 2-(5-(3-cyano-6-(1-methyl-1H-pyrazol-4-yl)pyrazolo[1,5-a]pyridin-4-yl)pyridin-2-yl)-2,8-diazaspiro[4.5]decane-8-carboxylate] |
| 1240 |  | Cn1cc(-c2cc(-c3ccc(N4CCC(C(=O)N5CCCC5)CC4)nc3)c3c(C#N)cnn3c2)cn1 [Example 248, 6-(1-methyl-1H-pyrazol-4-yl)-4-(6-(4-(pyrrolidine-1-carbonyl)piperidin-1-yl)pyridin-3-yl)pyrazolo[1,5-a]pyridine-3-carbonitrile] |
| 207 |  | Cn1cc(-c2cc(-c3ccc(N4CCN(CC(O)c5ccc(Cl)cc5)CC4)nc3)c3c(C#N)cnn3c2)cn1 (centres unmarked) [Example 152, 4-(6-(4-(2-(4-chlorophenyl)-2-hydroxyethyl)piperazin-1-yl)pyridin-3-yl)-6-(1-methyl-1H-pyrazol-4-yl)pyrazolo[1,5-a]pyridine-3-carbonitrile] |
| 1410 |  | Cn1cc(-c2cc(-c3ccc(N4CCN(C(=O)C5(C#N)CC5)CC4)nc3)c3c(C#N)cnn3c2)cn1 [Example 348, 4-(6-(4-(1-cyanocyclopropane-carbonyl)piperazin-1-yl)pyridin-3-yl)-6-(1-methyl-1H-pyrazol-4-yl)pyrazolo[1,5-a]pyridine-3-carbonitrile] |
|  | 1240 | Cn1cc(-c2cc(-c3ccc(N4CCN(Cc5ccn(C)n5)CC4)nc3)c3c(C#N)cnn3c2)cn1 [Example 439, 4-(6-(4-((1-methyl-1H-pyrazol-3-yl)methyl)piperazin-l-yl)pyridin-3-yl)-6-(1-methyl-1H-pyrazol-4-yl)pyrazolo[1,5-a]pyridine-3-carbonitrile] |
|  | 937 | Cn1cc(-c2cc(-c3ccc(N4CCN(Cc5ccccc5F)CC4)nc3)c3c(C#N)cnn3c2)cn1 [Example 427, 4-(6-(4-(2-fluorobenzyl)piperazin-1-yl)pyridin-3-yl)-6-(1-methyl-1H-pyrazol-4-yl)pyrazolo[1,5-a]pyridine-3-carbonitrile] |
| 42 |  | Cn1cc(-c2cc(-c3ccc(N4CCN(C[C@@H](O)c5ccccc5)CC4)nc3)c3c(C#N)cnn3c2)cn1 [Example 162, (S)-4-(6-(4-(2-hydroxy-2-phenylethyl)piperazin-1-yl)pyridin-3-yl)-6-(1-methyl-1H-pyrazol-4-yl)pyrazolo[1,5-a]pyridine-3-carbonitrile] |
| 4680 |  | Cn1cc(-c2cc(-c3ccc(N4CCCC5(CCN(C(=O)OC(C)(C)C)C5)C4)nc3)c3c(C#N)cnn3c2)cn1 (centres unmarked) [Example 208, tert-butyl 7-(5-(3-cyano-6-(1-methyl-1H-pyrazol-4-yl)pyrazolo[1,5-a]pyridin-4-yl)pyridin-2-yl)-2,7-diazaspiro[4.5]decane-2-carboxylate] |

| SMILES | IC50 (10% FBS) [nM] | IC50 [nM] |
| --- | --- | --- |
| Cc1cc(C(=O)N2CCN(c3ccc(-c4cc(-c5cnn(C)c5)cn5ncc(C#N)c45)cn3)CC2)no1 [Example 37, 6-(1-methyl-1H-pyrazol-4-yl)-4-(6-(4-(5-methylisoxazole-3-carbonyl)piperazin-1-yl)pyridin-3-yl)pyrazolo[1,5-a]pyridine-3-carbonitrile 2,2,2-trifluoroacetate] | 91.2 |  |
| Cc1cnc(C(=O)N2CCN(c3ccc(-c4cc(-c5cnn(C)c5)cn5ncc(C#N)c45)cn3)CC2)cn1 [Example 49, 6-(1-methyl-1H-pyrazol-4-yl)-4-(6-(4-(5-methylpyrazine-2-carbonyl)piperazin-1-yl)pyridin-3-yl)pyrazolo[1,5-a]pyridine-3-carbonitrile bis(2,2,2-trifluoroacetate)] | 237 |  |
| Cn1cc(-c2cc(-c3ccc(N4CCN(C(=O)C(c5ccccc5)N5CCOCC5)CC4)nc3)c3c(C#N)cnn3c2)cn1 (centres unmarked) [Example 363, 6-(1-methyl-1H-pyrazol-4-yl)-4-(6-(4-(2-morpholino-2-phenylacetyl)piperazin-1-yl)pyridin-3-yl)pyrazolo[1,5-a]pyridine-3-carbonitrile bis(2,2,2-trifluoroacetate)] | 2640 |  |
| Cc1nn(C)cc1CN1CCN(c2ccc(-c3cc(-c4cnn(C)c4)cn4ncc(C#N)c34)cn2)CC1 [Example 440, 4-(6-(4-((1,3-dimethyl-1H-pyrazol-4-yl)methyl)piperazin-1-yl)pyridine-3-yl)-6-(1-methyl-1H-pyrazol-4-yl)pyrazolo[1,5-a]pyridine-3-carbonitrile] |  | 1690 |
